Patent US7816555B2, “Peroxycarboxylic acid compositions with reduced odor” (Ecolab Inc., priority 2003, dated 2010)

Assay: pH of the mixtures
Assay type: physicochemical
Settings: mixture at the stated moles of POAA, AA and AO-8
Protocol: Octyldimethylamine oxide was added to a peracid composition containing 15% peroxyacetic acid, 10% hydrogen peroxide, and about 40-45% acetic acid. The octyldimethylamine oxide was added at different levels, corresponding to differing molar ratios of peroxyacetic acid (POAA) to acetic acid (AA) to octyldimethylamine oxide (AO-8). The mixture was then compared for remaining odor. […] It was surprising that this reduction occurred even at pH too low for ion pair formation between the AO-8 and POAA, i.e. substantially below the 8.2 pKa of POAA.

CCCCCCCC[N+](C)(C)[O-] [AO-8, octyldimethylamine oxide]
mixture results: pH: 7.7
